The test relates to bacteria. Put plainly: Residual test on coated carriers, 10 minute contact time (organism not named). It is filed as cell-based. To be noted: average over all inocula of the sample. The source says: Solutions of examples 12-01 to 12-05 were used to coat polycarbonate or glass carriers. Once dried, bacteria were inoculated on top of the coating and a log reduction of bacteria was obtained after a certain contact time. CFU=Colony Forming Units, TNTC=Too numerous to count, BCP=benzalkonium chloride powder, ThP=thymol powder

Turning to “alkyldimethylbenzylammonium chloride [0.3 wt % benzalkonium chloride control]”, the “Average Log 10 Reduction” value is recorded as 0.5.

The values above are taken from patent publication US9265248B2, “Water soluble antimicrobial composition” (Medivators Inc., priority 2011, dated 2016).
